Article PMC3843955 (Antiviral research, 2013)
Where “and” joins values, the source holds several entries; their conditions need not be identical. Identical values can stand only once. Like-named read-outs stand apart in the source and are kept apart here.

Key:
[1] = human, in vivo; cited from earlier work
[2] = test system: MCMV; conditions: read-out: EC50 for MCMV, cited from earlier work
[3] = test system: MRC-5 fibroblasts; test: CellTiter-Glo cytotoxicity assay, MRC-5; format: cell-based, human; conditions: uninfected MRC-5, ± standard deviation; for Yield inhibition MRC-5 TD50: CellTiter-Glo cytotoxicity assay after 5 d exposure to drugs; for Spread inhibition MRC-5 TD50: CellTiter-Glo cytotoxicity assay after 14 d exposure to drugs
[4] = test system: MCMV; conditions: sub-lethal MCMV infection in mice; ref Go et al., 2011; cited from earlier work
[5] = test system: HCMV; test: HCMV inhibition across spread inhibition and yield reduction assays; conditions: TD50 versus anti-HCMV EC50

Row | Compound | peak plasma concentration [1] [µM] | EC50 ([2]; ref Lembo et al., 2000) [µM] | Yield inhibition MRC-5 TD50 [3] | Spread inhibition MRC-5 TD50 [3] [µM] | peak plasma level [1] | viral load in livers and spleen [4] | EC50 ([2]; ref Go et al., 2011) [µM] | cytotoxicity TD50 fold higher than antiviral EC50 [5]
1 | NC(=O)NO [HU, hydroxyurea] | 264 to 660 | 3 | 14,500 ± 5400 µM | 4253 ± 701 |  |  |  | 
2 | O=C(NO)c1ccc(O)c(O)c1 [DX, didox] |  |  | 256 ± 5.7 µM | 146 ± 0.7 | approximately 300 µM | failed to decrease viral load in livers and spleen | 10 to 25 | 1.5- to 2 fold and 2 fold
3 | N/C(=N\O)c1cc(O)c(O)c(O)c1 [TX, trimidox] |  |  | 166 ± 57 µM | 86 ± 4.2 |  |  |  | 1.5- to 2 fold and 2 fold
